Among the data in the supplement of paper PMC10307832 are relative viability values, retold here.

Common to all, as to assay: relative viability (nuclei count vs DMSO), 5 days (fraction); higher = more cells survive
Compound in the assay “Axitinib + Lapatinib”: CNC(=O)c1ccccc1Sc1ccc2c(/C=C/c3ccccn3)n[nH]c2c1 [Axitinib] + CS(=O)(=O)CCNCc1ccc(-c2ccc3ncnc(Nc4ccc(OCc5cccc(F)c5)c(Cl)c4)c3c2)o1 [Lapatinib] (partner 2 µM)
The essentials:
(§1)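 Lung cancer cell lines, seeded in 1536-well plates, were treated the following day by pin tool with a single drug or with five library-drug doses (not always all listed) in √10 steps on top of a fixed anchor-drug dose. Cells were fixed and nuclei stained in one step after 5 days, and nuclei were counted. Relative viability is the nuclei count for treated wells divided by that for vehicle wells, reported as medians of duplicate plates.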

Compound in assay [1]: CC1=CC=C(C=C1)C(=O)CN2C3=C(CCCC3)SC2=N [Pifithrin_alpha] + O=C(c1cc(Cc2n[nH]c(=O)c3ccccc23)ccc1F)N1CCN(C(=O)C2CC2)CC1 [Olaparib] (partner 8 µM)
In outline: as §1

Compound in assay [2]: CC1=CC=C(C=C1)C(=O)CN2C3=C(CCCC3)SC2=N [Pifithrin_alpha] + Cc1nc(NC(=O)N2CCC[C@H]2C(N)=O)sc1-c1ccnc(C(C)(C)C(F)(F)F)c1 [Alpelisib] (partner 2 µM)
The essentials: as §1

Compound in the assay “Axitinib + Trametinib”: CNC(=O)c1ccccc1Sc1ccc2c(/C=C/c3ccccn3)n[nH]c2c1 [Axitinib] + CC(=O)Nc1cccc(-n2c(=O)n(C3CC3)c(=O)c3c(Nc4ccc(I)cc4F)n(C)c(=O)c(C)c32)c1 [Trametinib] (partner 0.02 µM)
In outline: as §1

As for IA-LM, the relative viability with Axitinib + Lapatinib (first compound 0.005 µM) amounted to 0.83; with Axitinib + Lapatinib (first compound 0.01581 µM) it was 0.884; with Axitinib + Lapatinib (first compound 0.05 µM), 0.781; in the assay with Axitinib + Lapatinib (first compound 0.1581 µM), 0.747; in the assay with Axitinib + Lapatinib (first compound 0.5 µM), 0.788; in assay [1] (first compound 1 µM) it was 0.758. Further, the relative viability in assay [1] (first compound 3.162 µM) was determined as 0.699; in assay [1] (first compound 10 µM) it was 0.332; in assay [1] (first compound 31.62 µM), 0.192; in assay [1] (first compound 100 µM) it was 0.271; in assay [2] (first compound 1 µM), 0.917; in assay [2] (first compound 3.162 µM), 0.757. The relative viability in assay [2] (first compound 10 µM) was 0.356; in assay [2] (first compound 31.62 µM) it was 0.442; in assay [2] (first compound 100 µM), 0.423.

LCLC-103H: the relative viability in the assay with Axitinib + Trametinib (first compound 0.005 µM) amounted to 0.737; in the assay with Axitinib + Trametinib (first compound 0.01581 µM), 0.651; with Axitinib + Trametinib (first compound 0.05 µM) it was 0.685; with Axitinib + Trametinib (first compound 0.1581 µM), 0.705; with Axitinib + Trametinib (first compound 0.5 µM) it was 0.693; in assay [1] (first compound 1 µM), 0.772. Besides, the relative viability in assay [1] (first compound 3.162 µM) turned out to be 0.817; in assay [1] (first compound 10 µM), 0.644; in assay [1] (first compound 31.62 µM), 0.52; in assay [1] (first compound 100 µM), 0.686; in assay [2] (first compound 1 µM), 0.971; in assay [2] (first compound 3.162 µM), 0.992. For the same cell line, the relative viability in assay [2] (first compound 10 µM) is 1.1; in assay [2] (first compound 31.62 µM), 0.931; in assay [2] (first compound 100 µM), 0.939.

As to NCI-H441, the relative viability with Axitinib + Trametinib (first compound 0.005 µM) came to 0.521; with Axitinib + Trametinib (first compound 0.01581 µM), 0.404; with Axitinib + Trametinib (first compound 0.05 µM), 0.331; in the assay with Axitinib + Trametinib (first compound 0.1581 µM), 0.485; in the assay with Axitinib + Trametinib (first compound 0.5 µM) it was 0.567; in assay [1] (first compound 1 µM), 0.608. Further, the relative viability is 0.673 in assay [1] (first compound 3.162 µM); 0.468 in assay [1] (first compound 10 µM); 0.542 in assay [1] (first compound 100 µM); 0.942 in assay [2] (first compound 1 µM); 0.859 in assay [2] (first compound 3.162 µM); 0.673 in assay [2] (first compound 10 µM). Also, the relative viability in assay [2] (first compound 31.62 µM) was found to be 0.708; in assay [2] (first compound 100 µM) it was 0.85.

On to NCI-H522, for which the relative viability in the assay with Axitinib + Trametinib (first compound 0.005 µM) is 0.87; with Axitinib + Trametinib (first compound 0.01581 µM), 0.752; with Axitinib + Trametinib (first compound 0.05 µM), 0.853; in the assay with Axitinib + Trametinib (first compound 0.1581 µM), 0.633; with Axitinib + Trametinib (first compound 0.5 µM), 0.81; in assay [1] (first compound 1 µM), 0.594. Further, the relative viability in assay [1] (first compound 3.162 µM) amounted to 0.604; in assay [1] (first compound 10 µM), 0.618; in assay [1] (first compound 31.62 µM), 0.516; in assay [1] (first compound 100 µM) it was 0.564.

Regarding NCI-H1299, the relative viability stood at 0.956 with Axitinib + Lapatinib (first compound 0.005 µM); 0.993 with Axitinib + Lapatinib (first compound 0.01581 µM); 0.96 with Axitinib + Lapatinib (first compound 0.05 µM); 0.97 in the assay with Axitinib + Lapatinib (first compound 0.1581 µM); 1.02 with Axitinib + Lapatinib (first compound 0.5 µM); 0.964 in assay [1] (first compound 1 µM). For the same cell line, the relative viability in assay [1] (first compound 3.162 µM) is 1; in assay [1] (first compound 10 µM), 0.985; in assay [1] (first compound 31.62 µM), 0.514; in assay [1] (first compound 100 µM) it was 0.794; in assay [2] (first compound 1 µM), 1.1; in assay [2] (first compound 3.162 µM), 1.09. Also, the relative viability in assay [2] (first compound 10 µM) turned out to be 1.07; in assay [2] (first compound 31.62 µM) it was 0.874; in assay [2] (first compound 100 µM) it was 1.18.

For NCI-H1563, the relative viability amounted to 0.956 with Axitinib + Lapatinib (first compound 0.005 µM); 0.85 with Axitinib + Lapatinib (first compound 0.01581 µM); 0.931 with Axitinib + Lapatinib (first compound 0.05 µM); 0.863 with Axitinib + Lapatinib (first compound 0.1581 µM); 0.694 with Axitinib + Lapatinib (first compound 0.5 µM); 0.967 in assay [2] (first compound 1 µM). Further, the relative viability is 0.919 in assay [2] (first compound 3.162 µM), 0.936 in assay [2] (first compound 10 µM), 0.922 in assay [2] (first compound 31.62 µM) and 0.82 in assay [2] (first compound 100 µM).

On to NCI-H1648, for which the relative viability with Axitinib + Trametinib (first compound 0.005 µM) came to 0.622; with Axitinib + Trametinib (first compound 0.01581 µM), 0.553; with Axitinib + Trametinib (first compound 0.05 µM) it was 0.335; in the assay with Axitinib + Trametinib (first compound 0.1581 µM), 0.525; with Axitinib + Trametinib (first compound 0.5 µM), 0.509; in assay [1] (first compound 1 µM), 1.1. Besides, the relative viability turned out to be 0.741 in assay [1] (first compound 3.162 µM), 0.963 in assay [1] (first compound 10 µM), 0.619 in assay [1] (first compound 31.62 µM) and 0.682 in assay [1] (first compound 100 µM).

In the case of NCI-H1650, the relative viability in the assay with Axitinib + Trametinib (first compound 0.005 µM) is 0.613; with Axitinib + Trametinib (first compound 0.01581 µM), 0.469; with Axitinib + Trametinib (first compound 0.05 µM), 0.682; with Axitinib + Trametinib (first compound 0.1581 µM) it was 0.648; with Axitinib + Trametinib (first compound 0.5 µM), 0.749; in the assay with Axitinib + Lapatinib (first compound 0.005 µM) it was 0.928. Besides, the relative viability in the assay with Axitinib + Lapatinib (first compound 0.01581 µM) is 0.532; with Axitinib + Lapatinib (first compound 0.05 µM) it was 0.884; in the assay with Axitinib + Lapatinib (first compound 0.1581 µM) it was 0.715; with Axitinib + Lapatinib (first compound 0.5 µM), 0.818; in assay [1] (first compound 1 µM), 0.596; in assay [1] (first compound 3.162 µM) it was 1.09. Also, the results for the relative viability in assay [1] (first compound 10 µM), in assay [1] (first compound 31.62 µM) and in assay [1] (first compound 100 µM) were 0.373, 0.298 and 0.408, respectively.

NCI-H1703: the relative viability with Axitinib + Lapatinib (first compound 0.005 µM) worked out at 0.848; with Axitinib + Lapatinib (first compound 0.01581 µM), 0.423; in the assay with Axitinib + Lapatinib (first compound 0.05 µM) it was 0.274; in the assay with Axitinib + Lapatinib (first compound 0.1581 µM) it was 0.273; with Axitinib + Lapatinib (first compound 0.5 µM) it was 0.441; in assay [1] (first compound 1 µM), 0.418. Further, the relative viability in assay [1] (first compound 3.162 µM) came to 0.328; in assay [1] (first compound 10 µM) it was 0.382; in assay [1] (first compound 31.62 µM) it was 0.313; in assay [1] (first compound 100 µM), 0.326; in assay [2] (first compound 1 µM), 0.317; in assay [2] (first compound 3.162 µM) it was 0.306. Moreover, the relative viability was 0.252 in assay [2] (first compound 10 µM), 0.366 in assay [2] (first compound 31.62 µM) and 0.377 in assay [2] (first compound 100 µM).

Regarding NCI-H2342, the relative viability with Axitinib + Trametinib (first compound 0.005 µM) amounted to 0.789; with Axitinib + Trametinib (first compound 0.01581 µM) it was 0.751; with Axitinib + Trametinib (first compound 0.05 µM) it was 0.703; with Axitinib + Trametinib (first compound 0.1581 µM), 0.881; with Axitinib + Trametinib (first compound 0.5 µM), 0.794; in assay [1] (first compound 1 µM), 0.519. Moreover, the relative viability in assay [1] (first compound 3.162 µM) is 0.415; in assay [1] (first compound 10 µM), 0.42; in assay [1] (first compound 31.62 µM) it was 0.373; in assay [1] (first compound 100 µM) it was 0.43.

As to SW 900, the relative viability with Axitinib + Trametinib (first compound 0.005 µM) was 0.915; with Axitinib + Trametinib (first compound 0.05 µM), 0.926; with Axitinib + Trametinib (first compound 0.1581 µM) it was 0.687; with Axitinib + Trametinib (first compound 0.5 µM), 0.943; in assay [1] (first compound 1 µM) it was 0.646; in assay [1] (first compound 3.162 µM), 0.57. In addition, the figures for the relative viability in assay [1] (first compound 10 µM), in assay [1] (first compound 31.62 µM) and in assay [1] (first compound 100 µM) were 0.56, 0.378 and 0.487, respectively.
